Laboratory results taken from patent US8138357B2, “Compounds and their salts specific to the PPAR receptors and the EGF receptors and their use in the medical field” (Giuliani International Limited, priority 2005, dated 2012).
“Also recorded” adds a separate entry of the source.

What was measured:
PPARγ [1] = biological target: T1, PPARγ (Homo sapiens, UniProt P37231); test: PPARγ activation, PPRE (2XCYP) luciferase reporter in transfected HT-29 STD cells (Example 8); format: cell-based; conditions: 30 mM, 24 hours, HT-29 STD transfected with 2XCYP
T1 construct: HT-29 STD cells were transiently transfected using the Effectene™ transfection reagent; endogenous in cells; host or cells: HT-29 STD (human colon carcinoma)
T1 sequence (P37231 1-505): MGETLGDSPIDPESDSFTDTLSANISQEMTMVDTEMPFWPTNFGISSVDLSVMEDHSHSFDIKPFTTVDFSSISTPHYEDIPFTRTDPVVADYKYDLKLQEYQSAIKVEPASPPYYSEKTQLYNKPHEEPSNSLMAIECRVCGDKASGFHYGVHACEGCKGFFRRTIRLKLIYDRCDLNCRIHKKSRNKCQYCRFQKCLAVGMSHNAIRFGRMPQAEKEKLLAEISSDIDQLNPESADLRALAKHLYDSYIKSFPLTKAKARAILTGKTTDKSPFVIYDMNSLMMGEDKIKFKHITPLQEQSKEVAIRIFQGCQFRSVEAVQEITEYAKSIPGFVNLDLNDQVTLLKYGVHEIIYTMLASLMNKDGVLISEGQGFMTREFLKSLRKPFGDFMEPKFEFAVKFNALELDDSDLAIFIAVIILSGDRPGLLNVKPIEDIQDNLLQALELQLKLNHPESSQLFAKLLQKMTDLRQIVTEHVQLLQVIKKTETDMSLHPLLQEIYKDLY
Protocol: (§1) HT-29 STD cells were transiently transfected using the Effectene™ transfection reagent (Qiagen™) according to instructions from the manufacturer. To test PPARγ activation, we performed transfection with 500 ng of a minimal promoter construct containing two copies of PPRE obtained from the cytochrome p450 4A (2XCYP) (1). The renilla luciferase plasmid ([…]) was also transfected as an internal control for monitoring transfection efficiency and for normalizing the firefly luciferase activity. Transfected cells were left for 48 hours incubation at 37° C. […] The pH of the drug solutions was adjusted to 7.4 with NaOH. Total cell extracts were prepared using the Passive Lysis Buffer (Promega™, Madison, Wis.). Luciferase activity was assayed in 20 μl of the extract using the Promega™ Dual Luciferase assay system according to the manufacturer's protocol. Transfections were assayed in triplicate in at least three separate experiments. The luciferase activity was expressed as fold of the activity obtained in cells treated with the different molecules divided by luciferase activity from non-stimulated cells.

PPARγ [2] = test: PPARγ protein expression by western blot in HT-29 cells; format: cell-based, human; conditions: 30 mM, 24 hours, HT-29, relative to β-actin
Protocol: The total proteins were obtained by cell homogenization in an extraction buffer consisting of PBS with 2% Triton™, Phenyl Methyl Sulphonyl Fluoride (PMSF) 100 mM and a classical protease inhibitor cocktail (2). The total proteins were then separated by polyacrylamide gel electrophoresis and electroblotted. Polyvinylidendifluoride (PVDF) membranes were incubated overnight with rabbit polyclonal primary antibody directed against PPARγ (dilution 1/500, TEBU, Le Perray en Yveline, France). β-actin was detected using a rabbit monoclonal primary antibody diluted at 1/10,000 (Sigma). Immunodetection with a secondary peroxidase-conjugated antibody (1/1000, Dako™, Trappes, France) and chemiluminescence was performed according to the manufacturer's protocol (ECL™, Amersham Pharmacia Biotech™, Orsay, France). Optical density values of PPARγ were given for each condition in proportion to the quantity of the internal control β-actin in the same sample (2).

HT-29 STD cells [3] = test: Cell proliferation by nuclear Ki-67 immunostaining; format: cell-based; conditions: Homo sapiens, 30 mM, 24 h, compared to untreated cells, read-out: inhibition of cell proliferation (Ki-67 staining)
Protocol: After 24 h of culture, HT-29 STD cells were treated during 24 h with the new molecules 13, 14, 17, 26 and 31, at 30 mM. […] The pH of the drug solutions was adjusted to 7.4 with NaOH. Cells were fixed in PFA 4%, permeabilized in PBS containing 0.1% Triton X-100™ at 4° C. and then incubated with goat normal serum and blocking buffer (1% BSA in PBS) to minimize non-specific adsorption of the antibody. Cell proliferation was assessed by a nuclear Ki-67 staining using mouse monoclonal primary antibody directed against Ki-67 (dilution 1:50 overnight; ZYMED™ Clinisciences™, Montrouge, France). […] Nuclei were stained with Hoescht 33342 solution (0.125 mg/mL) (Sigma-Aldrich™) and visualized under a fluorescence microscope (Leica™, Bensheim, Germany). Negative controls consisted of staining with a non-specific mouse serum instead of the specific antibody. Counts of at least 500 cells/sample were systematically performed blindly in one experiment. The results were expressed as the mean±SEM of the number of stained cells.

DLD-1 cells = test: Cell growth by colorimetric BrdU incorporation assay, DLD-1; format: cell-based; conditions: Homo sapiens, 48 hours; for inhibition at 500 µM: 0.5 mM; for inhibition at 1000 µM: 1 mM; for inhibition at 2500 µM: 2.5 mM; for inhibition at 5000 µM: 5 mM; for inhibition at 10000 µM: 10 mM
Protocol: (§2) HT-29 and DLD-1 cells were cultured in McCoy and RPMI1640 media respectively, supplemented with 10% fetal bovine serum (FBS), 1% penicillin/streptomycin (P/S) and 50 μg/ml gentamycin. HT-115 were cultured in DMEM medium supplemented with 15% FBS and 1% P/S. Cells were maintained in a humidified incubator at 37° C., in the presence of 5% CO2.
(§3) For cell growth assays, single-cell suspensions were plated at 2×10^3 cells/well (4×10^3 cells/well for HT115) in 96-well culture dishes in medium containing 0.5% FBS and allowed to adhere. The non-adherent cells were then removed, and fresh medium containing 0.5% FBS was added into each well. Cells were cultured in the presence or absence of the specified substances. Each substance was dissolved as a 25 mM stock solution in culture medium containing 0.5% FBS, and the pH of each stock solution was adjusted to 7.4, if necessary, with NaOH. Substances were used at a final concentration ranging from 0.5 to 10 mM. Cell proliferation was determined by measuring the incorporation of 5-bromo-2′-deoxyuridine (BrdU) into DNA using a commercially available cell proliferation kit (Roche Diagnostics™, Monza, Italy). BrdU was added to the cell cultures during the last 6 hours of incubation, and the level of BrdU-positive cells was assessed after 48 h culture by enzyme-linked immunosorbent assay (ELISA).
(§4) Optical density (OD) was determined at 450 nm using an ELISA reader. Experiments were performed in triplicate and the results are reported as the mean±standard deviation (SD).

HT-29, HT-115 and DLD-1 = test: Colon cancer cell growth by BrdU assay, three human colon carcinoma cell lines; format: cell-based; conditions: for anti-proliferative effect on colon cancer cell growth (in words): 0.5-10 mM, 48 h
Protocol: For this purpose, three human colon carcinoma cell lines (i.e. HT-29, HT-115 and DLD-1) were used. These cell types were selected on the basis of the cyclooxigenase-2 (COX-2) expression. Indeed, HT-115 cells express a biologically active COX-2, HT-29 cells express a non-functional COX-2 isoform, and DLD-1 are COX-2-deficient cells.
as §2, §3, §4

[4] = Solubility in drug solutions / culture medium; format: physicochemical; conditions: for solubility: drug solutions for HT-29 experiments, 30 mM, pH 7.4
HT-29 STD cells [5] = test: Cytotoxic effect on epithelial cells seen in the HT-29 experiments; format: cell-based, human; conditions: 30 mM, HT-29 cells
Protocol: as §1
After 24 h of culture, HT-29 STD cells were treated during 24 h with the new molecules 13, 14, 17, 26 and 31, at 30 mM. […] The pH of the drug solutions was adjusted to 7.4 with NaOH. Cells were fixed in PFA 4%, permeabilized in PBS containing 0.1% Triton X-100™ at 4° C. and then incubated with goat normal serum and blocking buffer (1% BSA in PBS) to minimize non-specific adsorption of the antibody.
After 24 h of culture, HT-29 STD cells were treated during 24 h with the new molecules 13, 14, 17, 26 and 31, at a concentration of 30 mM. […] The pH of the drug solutions was adjusted to 7.4 with NaOH. Cells undergoing apoptosis were identified by enzymatic labelling of DNA strands using a terminal transferase dUTP nick end labelling assay (TUNEL assay, Roche Diagnostics™, Meylan, France). Counts of at least 500 cells/sample were systematically performed blindly in one experiment. The results were expressed as the mean±SEM of the number of stained cells.

[6] = colon cancer cell cultures, Example 10

Question: What does the source list for Nc1cc2c(c(C(=O)O)c1)OCC2 [compound 17, 5-amino-2,3-dihydrobenzofuran-7-carboxylic acid]?
Answer: reporter gene activity, factor of increase relative to untreated cells (PPARγ [1]): two-fold; also recorded: about twice; induction of PPARγ protein levels quantified by western blot (PPARγ [2]): 2 fold; inhibition at 30000 µM (HT-29 STD cells [3]): 67 to 75%; inhibition at 500 µM (DLD-1 cells): 0%; inhibition at 1000 µM (DLD-1 cells): 0%; inhibition at 2500 µM (DLD-1 cells): 33.3%; inhibition at 5000 µM (DLD-1 cells): 89.3%; inhibition at 10000 µM (DLD-1 cells): 90.7%; anti-proliferative effect on colon cancer cell growth (in words) (HT-29, HT-115 and DLD-1): marked anti-proliferative effect; solubility [4]: poor solubility

Question: Which “induction of PPARγ protein levels quantified by western blot” value (PPARγ [2]) does the source give for CCOc1ccc(N)cc1C(=O)NO [compound 26, 5-amino-2-ethoxy-N-hydroxybenzamide] here?
Answer: 2 fold

Question: And the inhibition at 500 µM (DLD-1 cells)?
Answer: 13.6%

Question: And the inhibition at 1000 µM (DLD-1 cells)?
Answer: 19%

Question: What about the inhibition at 2500 µM (DLD-1 cells) of the same molecule?
Answer: 62%

Question: And the inhibition at 5000 µM (DLD-1 cells)?
Answer: 86%

Question: What about the inhibition at 10000 µM (DLD-1 cells) of the same molecule?
Answer: 94.5%

Question: What about the “anti-proliferative effect on colon cancer cell growth (in words)” value (HT-29, HT-115 and DLD-1) of the same molecule?
Answer: marked anti-proliferative effect

Question: And the “cytotoxic effect on epithelial cells” value (HT-29 STD cells [5])?
Answer: rapid cytotoxic effect

Question: For CC1(C)OC(=O)c2cc(N)ccc2O1 [compound 28, 6-amino-2,2-dimethyl-4H-benzo[1,3]dioxin-4-one], which “solubility in the culture medium” value ([4]; culture medium, Example 10) is on record?
Answer: not soluble in the culture medium

Question: With CC(C)N(c1ccc(O)c(C(=O)O)c1)C(C)C [compound 38, 5-diisopropylaminosalicylic acid] as the molecule, how does the inhibition at 500 µM (DLD-1 cells) read?
Answer: 6%

Question: What about the inhibition at 1000 µM (DLD-1 cells) of the same molecule?
Answer: 11.1%

Question: And the inhibition at 2500 µM (DLD-1 cells)?
Answer: 51.9%

Question: And the inhibition at 5000 µM (DLD-1 cells)?
Answer: 85.9%

Question: What about the inhibition at 10000 µM (DLD-1 cells) of the same molecule?
Answer: 94.5%

Question: What about the “anti-proliferative effect on colon cancer cell growth (in words)” value (HT-29, HT-115 and DLD-1) of the same molecule?
Answer: marked anti-proliferative effect; also recorded: most powerful suppressors of colon cancer cell growth

Question: And the “cell death following precipitates in cell cultures” value (HT-29, HT-115 and DLD-1; [6])?
Answer: massive cell death

Question: What about the “cytotoxic effect on epithelial cells” value (HT-29 STD cells [5]) of the same molecule?
Answer: rapid cytotoxic effect

Question: And the “precipitates in cell cultures” value [4, 6]?
Answer: precipitates developed

Question: What about the solubility [4] of the same molecule?
Answer: poor solubility
